“Also recorded” adds a separate entry of the source.
Experiments:
alpha-galactosidase A = molecular target: T1, alpha-galactosidase A (Homo sapiens, UniProt P06280); experiment: Inhibition of alpha-galactosidase A by lyso-CTH; type: biochemical
T1 sequence (P06280 32-429): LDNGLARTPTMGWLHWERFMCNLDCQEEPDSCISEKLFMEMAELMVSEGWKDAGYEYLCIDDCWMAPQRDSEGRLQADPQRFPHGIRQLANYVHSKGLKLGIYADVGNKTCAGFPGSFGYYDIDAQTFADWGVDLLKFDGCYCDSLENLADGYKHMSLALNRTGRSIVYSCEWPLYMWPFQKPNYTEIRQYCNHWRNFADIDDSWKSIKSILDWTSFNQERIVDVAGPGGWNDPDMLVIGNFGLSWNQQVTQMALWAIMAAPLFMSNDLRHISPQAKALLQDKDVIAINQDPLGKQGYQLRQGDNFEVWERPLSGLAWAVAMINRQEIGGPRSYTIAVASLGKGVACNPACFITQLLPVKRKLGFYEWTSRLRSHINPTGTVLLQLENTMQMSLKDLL

alpha-galactosidase B = molecular target: T2, alpha-galactosidase B (Homo sapiens, UniProt P17050); experiment: Inhibition of alpha-galactosidase B by lyso-CTH; type: biochemical
T2 sequence (P17050 18-411): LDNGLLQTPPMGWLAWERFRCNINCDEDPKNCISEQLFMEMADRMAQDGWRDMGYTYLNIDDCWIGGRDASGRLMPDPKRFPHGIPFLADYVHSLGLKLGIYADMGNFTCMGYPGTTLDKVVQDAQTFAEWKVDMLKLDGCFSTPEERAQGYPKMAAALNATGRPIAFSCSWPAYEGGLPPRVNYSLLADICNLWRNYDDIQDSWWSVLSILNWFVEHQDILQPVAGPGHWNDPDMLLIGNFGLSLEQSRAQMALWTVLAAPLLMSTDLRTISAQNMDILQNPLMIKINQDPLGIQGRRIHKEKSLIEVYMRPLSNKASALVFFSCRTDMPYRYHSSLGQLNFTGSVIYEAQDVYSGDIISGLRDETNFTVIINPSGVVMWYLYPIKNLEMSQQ

SMC-41 cell line = experiment: In vitro toxicity: 3H thymidine incorporation and proliferation in SMC-41 cell line; type: cell-based; details: lyso-CTH 0.065-0.65 μM, as found in plasma of Fabry patients
Experimental: The toxic effect of lyso-CTH was determined in vitro in SMC-41 cell line. ^3H thymidine incorporation (per 24 h) was determined as a function of lyso-CTH concentration.

[1] = Partitioning of lyso-CTH in extraction from plasma samples; type: physicochemical
Experimental: An optimal extraction procedure for lyso-CTH from plasma samples was established. A double extraction was carried out, first a Bligh and Dyer extraction followed by butanol extraction.

## CCCCCCCCCCCCC/C=C/[C@@H](O)[C@@H](N)CO[C@@H]1O[C@H](CO)[C@@H](O[C@@H]2O[C@H](CO)[C@H](O[C@H]3O[C@H](CO)[C@H](O)[C@H](O)[C@H]3O)[C@H](O)[C@H]2O)[C@H](O)[C@H]1O [lyso-CTH, lyso-ceramide trihexosamide]
alpha-galactosidase A
  inhibition of alpha-galactosidase A: potent inhibitor; also recorded: inhibits
alpha-galactosidase B
  inhibition of alpha-galactosidase B: potent inhibitor; also recorded: inhibits
SMC-41 cell line
  3H thymidine incorporation (per 24 h): increased isotope incorporation
  smooth muscle cell proliferation: promote in vitro smooth muscle cell proliferation; also recorded: increased proliferation
[1]; Bligh and Dyer extraction
  Partitioning of lyso-CTH (% of total), lower phase: 10 % of total
  Partitioning of lyso-CTH (% of total), upper phase: 90 % of total
[1]; butanol/water extraction
  Partitioning of lyso-CTH (% of total), lower phase: 2 % of total
  Partitioning of lyso-CTH (% of total), upper phase: 99 % of total

From patent US20100047844A1, “DIAGNOSTIC MARKER FOR FABRY DISEASE” (Academisch Ziekenhuis bij de Universiteit van Amsterdam, priority 2006, published 2010)
